From the supplement of paper PMC10307832

What was measured:
Test in all cases: relative viability (nuclei count vs DMSO), 5 days (fraction); higher = more cells survive
Crizotinib + Linsitinib = compound: C[C@@H](Oc1cc(-c2cnn(C3CCNCC3)c2)cnc1N)c1c(Cl)ccc(F)c1Cl [Crizotinib] + C[C@]1(O)C[C@@H](c2nc(-c3ccc4ccc(-c5ccccc5)nc4c3)c3c(N)nccn32)C1 [Linsitinib] (partner 1 µM)
Procedure, shortened: (§1)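 Relative viability is defined as nuclei in treated wells over nuclei in vehicle wells. Duplicate plates were run and medians reported. Lung cancer cell lines in 1536-well plates were dosed by pin tool one day after seeding, with one drug or with a fixed anchor-drug dose plus five library-drug doses (not always all listed) in √10 steps, and nuclei were counted after 5 days.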

Carfilzomib + Phenformin = compound: CC(C)C[C@H](NC(=O)[C@H](CCc1ccccc1)NC(=O)CN1CCOCC1)C(=O)N[C@@H](Cc1ccccc1)C(=O)N[C@@H](CC(C)C)C(=O)[C@@]1(C)CO1 [Carfilzomib] + N=C(N)NC(=N)NCCc1ccccc1 [Phenformin] (partner 250 µM)
Procedure, shortened: as §1

Carfilzomib + Olaparib = compound: CC(C)C[C@H](NC(=O)[C@H](CCc1ccccc1)NC(=O)CN1CCOCC1)C(=O)N[C@@H](Cc1ccccc1)C(=O)N[C@@H](CC(C)C)C(=O)[C@@]1(C)CO1 [Carfilzomib] + O=C(c1cc(Cc2n[nH]c(=O)c3ccccc23)ccc1F)N1CCN(C(=O)C2CC2)CC1 [Olaparib] (partner 8 µM)
Procedure, shortened: as §1

Carfilzomib + Dasatinib = compound: CC(C)C[C@H](NC(=O)[C@H](CCc1ccccc1)NC(=O)CN1CCOCC1)C(=O)N[C@@H](Cc1ccccc1)C(=O)N[C@@H](CC(C)C)C(=O)[C@@]1(C)CO1 [Carfilzomib] + Cc1nc(Nc2ncc(C(=O)Nc3c(C)cccc3Cl)s2)cc(N2CCN(CCO)CC2)n1 [Dasatinib] (partner 0.075 µM)
Procedure, shortened: as §1

NCI-H1793 gave a relative viability (Crizotinib + Linsitinib; first compound 0.01 µM) of 1.01, a relative viability (Crizotinib + Linsitinib; first compound 0.03162 µM) of 0.922 and a relative viability (Crizotinib + Linsitinib; first compound 0.1 µM) of 0.837. The relative viability (Crizotinib + Linsitinib; first compound 1 µM) was 0.87, the relative viability (Carfilzomib + Phenformin; first compound 0.003162 µM) was 0.404 and the relative viability (Carfilzomib + Phenformin; first compound 0.01 µM) was 0.296. It also gave a relative viability (Carfilzomib + Phenformin; first compound 0.03162 µM) of 0.407, a relative viability (Carfilzomib + Phenformin; first compound 0.1 µM) of 0.261 and a relative viability (Carfilzomib + Olaparib; first compound 0.001 µM) of 0.811. For the same cell line, the relative viability (Carfilzomib + Olaparib; first compound 0.003162 µM) was 1.05, the relative viability (Carfilzomib + Olaparib; first compound 0.01 µM) was 0.924 and the relative viability (Carfilzomib + Olaparib; first compound 0.03162 µM) was 0.732. It also gave a relative viability (Carfilzomib + Olaparib; first compound 0.1 µM) of 0.223, a relative viability (Carfilzomib + Dasatinib; first compound 0.003162 µM) of 0.507 and a relative viability (Carfilzomib + Dasatinib; first compound 0.01 µM) of 0.353. It also gave a relative viability (Carfilzomib + Dasatinib; first compound 0.03162 µM) of 0.376 and a relative viability (Carfilzomib + Dasatinib; first compound 0.1 µM) of 0.389.
